The results in this text go back to ChEMBL document CHEMBL5126657, “Cytotoxic Cyclodepsipeptides and Cyclopentane Derivatives from a Plant-Associated Fungus Fusarium sp” (J Nat Prod, 2022).

Holding throughout (type): functional, cell-based
Assay [1] deals with Huh-7. As to the kind of experiment: Antiproliferative activity against human Huh-7 cells assessed as reduction in cell viability after 48 hr by CCK-8 assay. Conditions: Huh-7, 48 h. (Formazan colour is commonly taken as a measure of viable cells.)
Assay [2] can be described thus: Antiproliferative activity against rat MRMT-1 cells assessed as reduction in cell viability after 48 hr by CCK-8 assay. The following applies: MRMT-1, 48 h.
Assay [3] deals with HepG2. As to the kind of experiment: Antiproliferative activity against human HepG2 cells assessed as reduction in cell viability after 48 hr by CCK-8 assay. Conditions: HepG2, 48 h.

Where a SMILES comes first, the peptide text is derived from it. [ ]: non-standard residue; d: D form. ξ: configuration not given here. NMeF = CN[C@@H](Cc1ccccc1)C(=O)O; Hica(2S) = CC(C)C[C@H](O)C(=O)O; ξLac(3-iPr) = CC(C)CC(O)C(=O)O

The term IC50 denotes the concentration at which inhibition is half-maximal. As for `COC(=O)/C=C/c1c(CC=C(C)C)ncn1C`, the IC50 in assay [1], in assay [2] and in assay [3] was greater than 50 µM each time.
As to `CC(C)[C@H]1OC(=O)[C@H](Cc2ccccc2)N(C)C(=O)[C@@H](C(C)C)OC(=O)[C@H](Cc2ccccc2)N(C)C(=O)[C@@H](C(C)C)OC(=O)[C@H](Cc2ccccc2)N(C)C1=O`, the IC50 in assay [1] came out at 4.3 µM; in assay [2] it was 8.7 µM; in assay [3], 1 µM.
As to `CCC(C)[C@H]1OC(=O)[C@H](C(C)C)N(C)C(=O)[C@@H](C(C)CC)OC(=O)[C@H](CC(C)C)N(C)C(=O)[C@@H](C(C)CC)OC(=O)[C@H](C(C)C)N(C)C1=O` (stereo partly specified), the figures for the IC50 in assay [1], in assay [2] and in assay [3] were 3.3 µM, 2.8 µM and 1.4 µM, respectively.
On the same counts, the results for `CC[C@H](C)[C@H]1OC(=O)[C@H](C(C)C)N(C)C(=O)[C@@H](C(C)C)OC(=O)[C@H](C(C)C)N(C)C(=O)[C@@H]([C@@H](C)CC)OC(=O)[C@H](C(C)C)N(C)C1=O` are 6.2 µM, 2.7 µM and 2.8 µM.
On to `CC(C)(O)[C@H]1Cc2cc(C=O)ccc2O1`, for which the half-maximal inhibitory concentration (IC50) in assay [1], in assay [2] and in assay [3] was greater than 50 µM each time.
Consider `CCCCCCCC(=O)O[C@@H]1[C@](N)(C(=O)O)CC[C@]1(O)c1ccccc1`, for which the IC50 in assay [1], in assay [2] and in assay [3] was greater than 50 µM throughout.
`CC(=O)CC(O)Cc1cc2cc(O)cc(O)c2c(=O)o1` (stereo unspecified): the IC50 in assay [1], in assay [2] and in assay [3] was greater than 50 µM in each case.
For the molecule `CCCCC/C=C\CCC(=O)O[C@@H]1[C@](N)(C(=O)O)CC[C@]1(O)c1ccccc1`, the IC50 in assay [1], in assay [2] and in assay [3] was greater than 50 µM throughout.
As for `CCC(C)[C@H]1OC(=O)[C@H](C(C)C)N(C)C(=O)[C@@H](C(C)CC)OC(=O)[C@H](C(C)C)N(C)C(=O)[C@@H](C(C)CC)OC(=O)[C@H](C(C)C)N(C)C1=O` (stereo partly specified), the IC50 worked out at 9.1 µM in assay [1], 6.8 µM in assay [2] and 3.3 µM in assay [3].
On the same counts, the results for `CCCCC/C=C\CCC(=O)OC1=C(c2ccccc2)CCC1=O` are greater than 50 µM, greater than 50 µM and greater than 50 µM.
In the case of `CCCCCCCC(=O)OC1=C(c2ccccc2)CCC1=O`, the IC50 in assay [1], in assay [2] and in assay [3] was greater than 50 µM each time.
On to `CC(C)CC1OC(=O)[C@H](Cc2ccccc2)NC(=O)[C@H](Cc2ccccc2)NC(=O)[C@H](Cc2ccccc2)NC(=O)[C@H](Cc2ccccc2)NC(=O)[C@H](Cc2c[nH]c3ccccc23)NC1=O` (stereo partly specified) (cyclo(FFFF[ξLac(3-iPr)]W)), for which the 50% inhibitory concentration (IC50) in assay [1] turned out to be 30.3 µM; in assay [2] it was 17.3 µM; in assay [3] it was 15.4 µM.
For `CC(C)CC1OC(=O)[C@H](Cc2ccccc2)NC(=O)[C@H](Cc2ccccc2)NC(=O)[C@H](Cc2ccccc2)NC(=O)[C@H](Cc2ccc(O)cc2)NC1=O` (stereo partly specified) (cyclo(FFF[ξLac(3-iPr)]Y)), in that order: 46.2 µM, greater than 50 µM and 10.7 µM.
On the same counts, the results for `CC(C)C[C@@H]1OC(=O)[C@H](Cc2ccccc2)N(C)C(=O)[C@@H]2CCCN2C(=O)[C@H](C(C)C)NC(=O)[C@H](Cc2ccccc2)NC(=O)[C@@H]2CCCN2C(=O)[C@@H]2CCCN2C1=O` (cyclo(FVP[NMeF][Hica(2S)]PP)) are greater than 50 µM, greater than 50 µM and 20.1 µM.
On the same counts, the results for `CCC(C)C1NC(=O)C(CC(C)C)NC(=O)C(C(C)CC)NC(=O)C(CC(C)C)NC(=O)C(CC(C)C)NC1=O` (stereo unspecified) (cyclo(ILILL); configuration not given here) are greater than 50 µM, greater than 50 µM and 14.1 µM.
`O=c1[nH]cc(F)c(=O)[nH]1` [FLUOROURACIL]: the IC50 in assay [1] turned out to be 30.3 µM; in assay [2], 25.7 µM; in assay [3], 36.1 µM.
For `CN1C(=O)[C@@](C)(O)C(=O)[C@@H]1Cc1ccc2c(c1)CC(C(C)(C)O)O2` (stereo partly specified) [RIGIDIUSCULAMIDE C], in that order: greater than 50 µM, greater than 50 µM and greater than 50 µM.
